Eleven compounds from patent US6642392B1 (priority 1997, dated 2003) can be followed below.

Where two headings read alike, the source gives them in different places.

Common to all, as to assay type: in vivo
The subject of one assay is Pyricularia oryzae. As to conditions: for Test C disease control rating: rice blast.
In the next assay the test system is Phytophthora infestans. To be noted: for Test D disease control rating: tomato late blight.
Another assay concerns Botrytis cinerea. Kind of assay: Test E: gray mold, preventive spray on cucumber seedlings. As to conditions: for Test E disease control rating: gray mold on cucumber. In a few lines:
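Compounds in 3% acetone were suspended with 250 ppm Trem 014 surfactant and sprayed to run-off on cucumber seedlings. B. cinerea spores were inoculated next day, then 48 h saturated humidity at 20° C and 5 days at 20° C. Disease control rated 0–100% versus controls.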

Assay [1] deals with Eiysiphe graminis f. sp. tritici. Kind of assay: Test A: wheat powdery mildew, preventive spray on wheat seedlings. As to conditions: for Test A disease control rating: wheat powdery mildew. The procedure, abridged: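 Compounds (3% acetone, 250 ppm Trem 014) sprayed to run-off on wheat seedlings, inoculated next day with spore dust. Incubated 7 days at 20° C before disease rating, 0–100% control relative to untreated controls.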

The next assay relates to Puccinia recondita. Kind of assay: Test B: wheat leaf rust, preventive spray on wheat seedlings. To be noted: for Test B disease control rating: wheat leaf rust. In a few lines:
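Wheat seedlings were sprayed to run-off with compound (3% acetone, 250 ppm Trem 014), then inoculated with P. recondita spores the next day. They were held 24 h saturated at 20 °C, then 6 days at 20 °C. Ratings are 0–100% disease control versus controls.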

The mark [2] stands for this setting: 100 = 100% disease control, 0 = no control, unmarked entries (standard test concentration).
[3] abbreviates: 100 = 100% disease control, 0 = no control relative to controls, unmarked entries (standard test concentration).
Where [4] appears, read: wheat seedlings sprayed to run-off, inoculated the following day, rating relative to controls, unmarked compounds (standard test rate).

For `CC(COc1c(Cl)cccc1Cl)NC(=O)C(C#N)C(C)(C)C` (mixture of isomers) [compound 34], the “Test C disease control rating” value with Pyricularia oryzae (setting [2]) came out at 91%. In addition, the “Test D disease control rating” value with Phytophthora infestans (setting [2]) is recorded as 0%. Moreover, in the assay on Botrytis cinerea (setting [2]), the “Test E disease control rating” value amounted to 0%. Moreover, the “Test A disease control rating” value in assay [1] (setting [3]) amounted to 62%. Moreover, the “Test B disease control rating” value with Puccinia recondita (setting [2]) was 85%.
Turning to `C=CC(C)(C)C(C#N)C(=O)N[C@H](C)COc1cc(F)ccc1Cl` (single isomer, unassigned) [192a], in the assay with Pyricularia oryzae (setting [2]), the “Test C disease control rating” value is listed as 100%. Further, the “Test D disease control rating” value in the assay on Phytophthora infestans (setting [2]) came out at 0%. Besides, the “Test E disease control rating” value in the assay on Botrytis cinerea (setting [2]) came out at 85%. The “Test A disease control rating” value in assay [1] (setting [3]) amounted to 0%. Further, in the assay with Puccinia recondita (setting [2]), the “Test B disease control rating” value is 0%.
In the case of `CC(COc1ccccc1CC#N)NC(=O)C(C#N)C(C)(C)C` (mixture of isomers) [compound 16], in the assay on Pyricularia oryzae (setting [2]), the “Test C disease control rating” value is 97%. Besides, the “Test D disease control rating” value in the assay on Phytophthora infestans (setting [2]) amounted to 48%. Moreover, the “Test E disease control rating” value in the assay on Botrytis cinerea (setting [2]) was 0%. Further, in assay [1] (setting [3]), the “Test A disease control rating” value came to 0%. Further, the “Test B disease control rating” value with Puccinia recondita (setting [2]) was determined as 0%.
On to `C#CC(C)(C=C)C(C#N)C(=O)NC(C)COc1cc(F)ccc1Cl` (mixture of isomers) [compound 303], for which the “Test C disease control rating (100 = 100% disease control, 0 = no disease control)” value in the assay with Pyricularia oryzae (rice seedlings sprayed to run-off, inoculated the following day, rating relative to controls, unmarked compounds (standard test rate)) stood at 99%. Further, the “Test D disease control rating (100 = 100% disease control, 0 = no disease control)” value with Phytophthora infestans (tomato seedlings sprayed to run-off, inoculated the following day, rating relative to controls, unmarked compounds (standard test rate)) was found to be 100%. The “Test E disease control rating (100 = 100% disease control, 0 = no disease control)” value in the assay on Botrytis cinerea (cucumber seedlings sprayed to run-off, inoculated the following day, rating relative to controls, unmarked compounds (standard test rate)) came to 0%. Also, in assay [1] (setting [4]), the “Test A disease control rating (100 = 100% disease control, 0 = no disease control)” value turned out to be 0%. Besides, the “Test B disease control rating (100 = 100% disease control, 0 = no disease control)” value with Puccinia recondita (setting [4]) was 0%.
With `C[C@H](COc1cc(Cl)cc(Cl)c1Cl)NC(=O)C(C#N)C(C)(C)C` (single isomer, unassigned) [170a], the “Test C disease control rating” value in the assay on Pyricularia oryzae (setting [2]) is 53%. For the same compound, the “Test D disease control rating” value in the assay on Phytophthora infestans (setting [2]) was 0%. Besides, in the assay on Botrytis cinerea (setting [2]), the “Test E disease control rating” value is 58%. For the same compound, the “Test A disease control rating” value in assay [1] (setting [3]) worked out at 35%. For the same compound, in the assay with Puccinia recondita (setting [2]), the “Test B disease control rating” value amounted to 0%.
Regarding `C[C@H](COc1ccc(Cl)cc1Cl)NC(=O)C(C#N)C(C)(C)C` (single isomer, unassigned) [32a], the “Test C disease control rating” value in the assay on Pyricularia oryzae (setting [2]) is 91%. Further, the “Test D disease control rating” value with Phytophthora infestans (setting [2]) is recorded as 0%. Moreover, the “Test E disease control rating” value with Botrytis cinerea (setting [2]) is recorded as 0%. For the same compound, the “Test A disease control rating” value in assay [1] (setting [3]) was 0%. The “Test B disease control rating” value with Puccinia recondita (setting [2]) is listed as 27%.
As for `CCc1cccc(OCC(C)NC(=O)C(C#N)C(C)(C)C)c1` (mixture of isomers) [compound 177], in the assay on Pyricularia oryzae (setting [2]), the “Test C disease control rating” value was found to be 94%. In addition, the “Test D disease control rating” value in the assay with Phytophthora infestans (setting [2]) was 35%. Moreover, in the assay with Botrytis cinerea (setting [2]), the “Test E disease control rating” value stood at 6%. In assay [1] (setting [3]), the “Test A disease control rating” value is listed as 62%. The “Test B disease control rating” value in the assay with Puccinia recondita (setting [2]) is on record as 0%.
For `CCC1(C(=O)NC(C)COc2ccc(F)cc2Br)C(C)C1(Cl)Cl` (stereo not shown) [compound 124], the “Test C disease control rating” value with Pyricularia oryzae (tested at 40 ppm) was 0%. For the same compound, in the assay on Phytophthora infestans (tested at 40 ppm), the “Test D disease control rating” value was 0%. In addition, the “Test E disease control rating” value in the assay with Botrytis cinerea (tested at 40 ppm) turned out to be 0%. The “Test A disease control rating” value in assay [1] (tested at 40 ppm) turned out to be 83%. For the same compound, in the assay with Puccinia recondita (tested at 40 ppm), the “Test B disease control rating” value was 0%.
Regarding `CC(COc1ccccc1)NC(=O)C(C#N)C(C)(C)C` (mixture of isomers) [1a], the “Test C disease control rating” value in the assay with Pyricularia oryzae (setting [2]) came to 53%. For the same compound, in the assay on Phytophthora infestans (setting [2]), the “Test D disease control rating” value is 0%. In the assay on Botrytis cinerea (setting [2]), the “Test E disease control rating” value was determined as 0%. Besides, in assay [1] (setting [3]), the “Test A disease control rating” value is recorded as 60%. Further, in the assay on Puccinia recondita (setting [2]), the “Test B disease control rating” value stood at 0%.
On to `CCC1(C(=O)NC(C)COn2c(C#N)cc(Cl)c2C)C(C)C1(Cl)Cl` (mixture of isomers) [140a], for which, in the assay on Pyricularia oryzae (setting [2]), the “Test C disease control rating” value is recorded as 90%. In addition, in the assay with Phytophthora infestans (setting [2]), the “Test D disease control rating” value stood at 0%. Moreover, the “Test E disease control rating” value with Botrytis cinerea (setting [2]) is on record as 0%. Also, the “Test A disease control rating” value in assay [1] (setting [3]) is 29%. Moreover, in the assay with Puccinia recondita (setting [2]), the “Test B disease control rating” value was determined as 0%.
As for `C[C@H](COc1ccc(Br)cc1)NC(=O)C(C#N)C(C)(C)C` (single isomer, unassigned) [10c], in the assay with Pyricularia oryzae (setting [2]), the “Test C disease control rating” value is 53%. For the same compound, in the assay with Phytophthora infestans (setting [2]), the “Test D disease control rating” value came out at 35%. Moreover, the “Test E disease control rating” value in the assay with Botrytis cinerea (setting [2]) is given as 0%. Moreover, the “Test A disease control rating” value in assay [1] (setting [3]) amounted to 0%. Further, in the assay with Puccinia recondita (setting [2]), the “Test B disease control rating” value was determined as 86%.
